Measured values published in patent US20150297639A1, “TREATING CANCER” (Rhode Island Hospital, A Lifespan-Partner, priority 2012, published 2015).

Assays:
DU145 cell line = DU145 cell line treated with 9NC; cited from earlier work
DU145 cells = assay: PARP cleavage Western blot, DU145 cells treated with CPT; type: cell-based, human; details: 100 nM CPT 24 hours, vs untreated control cells
Protocol: FIGS. 1A-D are a series of photomicrographs and bar graphs showing ECV-mediated reversal of apoptosis resistance and sensitivity. A, B. ECVs were isolated from DU145 S and DU145 R prostate cells. The ECVs were resuspended in PBS. DU145 S cells were co-cultured with DU145 R ECVs and DU145 R cells were co-cultured with DU145 S ECVs. Non-ECV and ECV co-cultured cells were treated with 100 nM of the anticancer agent camptothecin (CPT) for 24 hours and examined for PARP cleavage and actin via Western blot analysis to measure apoptosis. C, D. The same experiment from A and B was repeated and the samples were examined for apoptosis via propidium iodide staining using a flow cytometer. […]
Total cell extracts were prepared as previously described, and protein concentrations of lysates were determined using a Bradford assay kit (BioRad). […] Proteins recognized by antibodies were detected by enhanced chemilluminescence reagents (GE Healthcare).
To investigate the effects of ECV-mediated transfer of chemoresistance in prostate cancer, the mechanism of resistance to camptothecin (CPT) was studied in human prostate cancer cell lines. […] After six days, both groups were treated with CPT, cells were harvested and analyzed for apoptosis via Poly ADP Ribose Polymerase (PARP) cleavage. […] The same experiment was repeated, and the cells were analyzed for apoptosis via flow cytometry.

MCF7 breast cancer cells = assay: PARP cleavage Western blot, MCF7 cells treated with Dox; type: cell-based, human; details: Dox 24 hours
Protocol: (§1) FIG. 8 is a photomicrograph showing MCF7 and MDR breast cancer cells treated with the indicated doses of doxorubicin (Dox) for 24 hours. Western blot analysis was performed to measure the cleavage of PARP (an indicator of apoptosis induction).
(§2) The transfer of chemosensitivity of MCF7 (sensitive) and MCF/MDR (resistant) (MDR) breast cancer cells that are sensitive or resistant, respectively to doxorubicin (Dox) was explored. These cells, similar to the prostate cancer cells, were grown in medium with serum that was depleted of ECVs.

MDR breast cancer cells = assay: PARP cleavage Western blot, MDR cells treated with Dox; type: cell-based, human; details: Dox 24 hours
Protocol: as §1
FIG. 9 is a photomicrograph of a Western blot analysis for PARP cleavage and actin in protein lysates isolated from MDR (resistant) cells that were co-cultured with MCF7 (sensitive) ECVs for three days then treated with the indicated concentrations of Dox.
as §2
A reciprocal experiment was performed and ECVs from MCF-7 (sensitive) cells were isolated and co-cultured with MDR (resistant) cells for three days. The MDR (resistant) cells were treated with two doses of Dox.

MCF-7 cells = assay: Apoptosis by flow cytometry, MCF-7 cells treated with Dox; type: cell-based, human; details: 10 nM Dox 24 hours
Protocol: FIG. 10 is a bar graph showing the amount of apoptosis in MCF-7 cells that were treated with 10 nM Dox for 24 hours in the presence or absence of MDR ECVs. Cells were harvested and apoptosis measured by flow cytometry. A paired t-test was performed * comparing Dox-treated MCF7 cells and MCF7 cells co-cultured with MDR ECVs. * A paired t-test (p<0.0005) was performed comparing the reduction in soft agar colony formation between Dox treated and MCF7+MDR ECVs+Dox.
The reciprocal experiment from FIG. 9 was performed, and ECVs were isolated from MDR (resistant) cells and co-cultured with MCF7 (sensitive) cells for three days and treated with 10 nM Dox. The cells were analyzed for apoptosis induction by flow cytometry.

## CC[C@@]1(O)C(=O)OCc2c1cc1n(c2=O)Cc2cc3c([N+](=O)[O-])cccc3nc2-1 [9NC, 9-nitrocamptothecin]
DU145 cell line
  apoptosis: extensive apoptosis

## CC[C@@]1(O)C(=O)OCc2c1cc1n(c2=O)Cc2cc3ccccc3nc2-1 [CPT, camptothecin]
DU145 cells
  PARP cleavage: increase in PARP cleavage

## COc1cccc2c1C(=O)c1c(O)c3c(c(O)c1C2=O)C[C@@](O)(C(=O)CO)C[C@@H]3O[C@H]1C[C@H](N)[C@H](O)[C@H](C)O1 [Dox, doxorubicin]
MCF7 breast cancer cells
  apoptosis measured by cleavage of PARP: sensitive to dose-dependent induction of apoptosis
MDR breast cancer cells
  apoptosis measured by cleavage of PARP: remained resistant
MCF-7 cells
  apoptosis: underwent significant apoptosis
